Starred links: 1 amine or outer side, 2 acyl side, 3 side chain; linkers in the order of their positions; H or OH if unused. Positions of bridges follow the written chain, without caps; N, C: chain ends. Non-standard residues stand in square brackets, D forms with d. Residues, ends and D or L forms follow the SMILES beside them. Groups on a side chain read outwards from the residue. *: point of attachment. Trp(1-Me) = Cn1cc(C[C@H](N)C(=O)O)c2ccccc21; C18 diacid = O=C(O)CCCCCCCCCCCCCCCCC(=O)*; C16 diacid = O=C(O)CCCCCCCCCCCCCCC(=O)*; γGlu = O=C(O)[C@H](CCC(=O)[*:2])N[*:1]; 2Nal = N[C@@H](Cc1ccc2ccccc2c1)C(=O)O; AEEA = NCCOCCOCC(=O)O; Sar = CNCC(=O)O
Key:
[1] = tested on: classical complement pathway; test: In vitro haemolysis assay (inhibition of classical complement pathway); type: cell-based, human; details: human serum, sensitized sheep red blood cells; Table 3, given as upper bounds; read-out: IC50, inhibition of hemolysis
In short: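 Compound dilutions preincubated 15 min at room temperature with diluted human serum (titrated per batch for 70-90% maximal haemolysis), then antibody-sensitized sheep RBC (10^7/well) added for 30 min at 37 °C in Tris/casein buffer, pH 7.4. Stopped with EDTA; haemolysis read at 405 nm; IC50 by 4PL fit.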

[2] = Solubility test at 10 mg/mL (visual inspection and light scattering); type: physicochemical; details: for Solubility, Condition 1: Acetate pH 4; for Solubility, Condition 2: Acetate pH 5; for Solubility, Condition 3: Phosphate pH 6; for Solubility, Condition 4: Phosphate pH 7; for Solubility, Condition 5: Phosphate pH 7.5

Compound | IC50 [1] | Solubility, Condition 1 [2] | Solubility, Condition 2 [2] | Solubility, Condition 3 [2] | Solubility, Condition 4 [2] | Solubility, Condition 5 [2]
CC[C@H](C)[C@@H]1NC(=O)[C@@H](NC(=O)[C@H](Cc2ccc(O)cc2)NC(=O)[C@H](CCC(=O)O)NC(=O)[C@H](CO)NC(C)=O)CSSC[C@@H](C(=O)N(C)CC(=O)N[C@@H](CCC(=O)O)C(=O)NCC(=O)N[C@@H](CCC(=O)O)C(=O)N[C@@H](CCCCNC(=O)CC[C@H](NC(=O)CNC(=O)CC[C@H](NC(=O)CCCCCCCCCCCCCCCCC(=O)O)C(=O)O)C(=O)O)C(N)=O)NC(=O)[C@H](CCCNC(=N)N)NC(=O)[C@H](Cc2c[nH]cn2)NC(=O)[C@H](CCC(=O)O)NC(=O)CNC(=O)[C@H](Cc2c[nH]c3ccccc23)NC(=O)[C@H](CC(=O)O)NC(=O)[C@H](CCC(N)=O)NC(=O)[C@H](Cc2cn(C)c3ccccc23)NC1=O [Compound 114] (Ac-SEYCI[Trp(1-Me)]QDWGEHRC[Sar]EGEK([γGlu-Gly-γGlu-C18 diacid])-NH2; disulfide 4-14) | < 500 nM | + (“+” denotes solubility at the given condition, as determined by UV absorbance being less than 0.1 AU at 340 nm and the sample being clear when manually inspected) | + (“+” denotes solubility at the given condition, as determined by UV absorbance being less than 0.1 AU at 340 nm and the sample being clear when manually inspected) | + (“+” denotes solubility at the given condition, as determined by UV absorbance being less than 0.1 AU at 340 nm and the sample being clear when manually inspected) | + (“+” denotes solubility at the given condition, as determined by UV absorbance being less than 0.1 AU at 340 nm and the sample being clear when manually inspected) | + (“+” denotes solubility at the given condition, as determined by UV absorbance being less than 0.1 AU at 340 nm and the sample being clear when manually inspected)
CC[C@H](C)[C@H](NC(C)=O)C(=O)N[C@H]1CSSC[C@@H](C(=O)N[C@H](C(=O)NCC(=O)N[C@@H](C)C(=O)N[C@@H](CCC(=O)O)C(=O)N[C@@H](CO)C(N)=O)[C@@H](C)O)NC(=O)[C@H](CCCNC(=N)N)NC(=O)[C@H](Cc2c[nH]cn2)NC(=O)[C@H](CCC(=O)O)NC(=O)CNC(=O)[C@H](Cc2c[nH]c3ccccc23)NC(=O)[C@H](CC(=O)O)NC(=O)[C@H](CCC(N)=O)NC(=O)[C@H](Cc2ccc3ccccc3c2)NC(=O)[C@H]([C@@H](C)CC)NC1=O [Compound 52] (Ac-ICI[2Nal]QDWGEHRCTGAES-NH2; disulfide 2-12) | < 100 nM | − (“−” denotes lack of solubility at the given condition, as UV absorbance at 340 nm exceeds 0.1 AU and/or it is visibly turbid or contains particles) | − (“−” denotes lack of solubility at the given condition, as UV absorbance at 340 nm exceeds 0.1 AU and/or it is visibly turbid or contains particles) | + (“+” denotes solubility at the given condition, as determined by UV absorbance being less than 0.1 AU at 340 nm and the sample being clear when manually inspected) | + (“+” denotes solubility at the given condition, as determined by UV absorbance being less than 0.1 AU at 340 nm and the sample being clear when manually inspected) | + (“+” denotes solubility at the given condition, as determined by UV absorbance being less than 0.1 AU at 340 nm and the sample being clear when manually inspected)
CC[C@H](C)[C@H](NC(=O)[C@H](C)NC(=O)[C@H](CO)NC(=O)[C@H](CO)NC(=O)[C@H](CCC(=O)O)NC(C)=O)C(=O)N[C@H]1CSSC[C@@H](C(=O)N[C@H](C(=O)NCC(=O)N[C@@H](C)C(=O)N[C@@H](CCC(=O)O)C(=O)N[C@@H](CO)C(N)=O)[C@@H](C)O)NC(=O)[C@H](CCCNC(=N)N)NC(=O)[C@H](Cc2c[nH]cn2)NC(=O)[C@H](CCC(=O)O)NC(=O)CNC(=O)[C@H](Cc2c[nH]c3ccccc23)NC(=O)[C@H](CC(=O)O)NC(=O)[C@H](CCC(N)=O)NC(=O)[C@H](Cc2c[nH]c3ccccc23)NC(=O)[C@H]([C@@H](C)CC)NC1=O [Compound 14] (Ac-ESSAICIWQDWGEHRCTGAES-NH2; disulfide 6-16) | < 100 nM | + (“+” denotes solubility at the given condition, as determined by UV absorbance being less than 0.1 AU at 340 nm and the sample being clear when manually inspected) | − (“−” denotes lack of solubility at the given condition, as UV absorbance at 340 nm exceeds 0.1 AU and/or it is visibly turbid or contains particles) | − (“−” denotes lack of solubility at the given condition, as UV absorbance at 340 nm exceeds 0.1 AU and/or it is visibly turbid or contains particles) | + (“+” denotes solubility at the given condition, as determined by UV absorbance being less than 0.1 AU at 340 nm and the sample being clear when manually inspected) | + (“+” denotes solubility at the given condition, as determined by UV absorbance being less than 0.1 AU at 340 nm and the sample being clear when manually inspected)
CC[C@H](C)[C@H](NC(C)=O)C(=O)N[C@H]1CSSC[C@@H](C(=O)N[C@H](C(=O)NCC(=O)N[C@@H](C)C(=O)N[C@@H](CCC(=O)O)C(=O)N[C@@H](CO)C(N)=O)[C@@H](C)O)NC(=O)[C@H](CCCNC(=N)N)NC(=O)[C@H](Cc2c[nH]cn2)NC(=O)[C@H](CCC(=O)O)NC(=O)CNC(=O)[C@H](Cc2c[nH]c3ccccc23)NC(=O)[C@H](CC(=O)O)NC(=O)[C@H](CCC(N)=O)NC(=O)[C@H](Cc2cn(C)c3ccccc23)NC(=O)[C@H]([C@@H](C)CC)NC1=O [Compound 51] (Ac-ICI[Trp(1-Me)]QDWGEHRCTGAES-NH2; disulfide 2-12) | < 100 nM | − (“−” denotes lack of solubility at the given condition, as UV absorbance at 340 nm exceeds 0.1 AU and/or it is visibly turbid or contains particles) | − (“−” denotes lack of solubility at the given condition, as UV absorbance at 340 nm exceeds 0.1 AU and/or it is visibly turbid or contains particles) | + (“+” denotes solubility at the given condition, as determined by UV absorbance being less than 0.1 AU at 340 nm and the sample being clear when manually inspected) | + (“+” denotes solubility at the given condition, as determined by UV absorbance being less than 0.1 AU at 340 nm and the sample being clear when manually inspected) | + (“+” denotes solubility at the given condition, as determined by UV absorbance being less than 0.1 AU at 340 nm and the sample being clear when manually inspected)
CC[C@H](C)[C@@H]1NC(=O)[C@@H](NC(=O)[C@H](Cc2ccc(O)cc2)NC(=O)[C@H](C)NC(=O)[C@H](CO)NC(=O)CNC(=O)[C@H](CCC(=O)O)NC(C)=O)CSSC[C@@H](C(=O)N(C)CC(=O)N[C@@H](CCC(=O)O)C(N)=O)NC(=O)[C@H](CCCCNC(=O)COCCOCCNC(=O)COCCOCCNC(=O)CC[C@H](NC(=O)CCCCCCCCCCCCCCC(=O)O)C(=O)O)NC(=O)[C@H](Cc2c[nH]cn2)NC(=O)[C@H](CCC(=O)O)NC(=O)CNC(=O)[C@H](Cc2c[nH]c3ccccc23)NC(=O)[C@H](CC(=O)O)NC(=O)[C@H](CCC(N)=O)NC(=O)[C@H](Cc2cn(C)c3ccccc23)NC1=O [Compound 103, Ac-EGSAYC(1)I[1-Me-Trp]QDWGEH-[K([15-carboxy-pentadecanoyl][γGlu][Peg3][Peg3])]-C(1)[Sar]E-NH2] (Ac-EGSAYCI[Trp(1-Me)]QDWGEHK([AEEA-AEEA-γGlu-C16 diacid])C[Sar]E-NH2; disulfide 6-16) | < 100 nM | − (“−” denotes lack of solubility at the given condition, as UV absorbance at 340 nm exceeds 0.1 AU and/or it is visibly turbid or contains particles) | + (“+” denotes solubility at the given condition, as determined by UV absorbance being less than 0.1 AU at 340 nm and the sample being clear when manually inspected) | + (“+” denotes solubility at the given condition, as determined by UV absorbance being less than 0.1 AU at 340 nm and the sample being clear when manually inspected) | + (“+” denotes solubility at the given condition, as determined by UV absorbance being less than 0.1 AU at 340 nm and the sample being clear when manually inspected) | + (“+” denotes solubility at the given condition, as determined by UV absorbance being less than 0.1 AU at 340 nm and the sample being clear when manually inspected)
CC[C@H](C)[C@@H]1NC(=O)[C@@H](NC(=O)CN(C)C(=O)[C@H](CCC(=O)O)NC(=O)[C@H](CO)NC(C)=O)CSSC[C@@H](C(=O)N(C)CC(=O)N[C@@H](CCC(=O)O)C(=O)N[C@@H](C)C(N)=O)NC(=O)[C@H](CCCNC(=N)N)NC(=O)[C@H](Cc2c[nH]cn2)NC(=O)[C@H](CCC(=O)O)NC(=O)CNC(=O)[C@H](Cc2c[nH]c3ccccc23)NC(=O)[C@H](CC(=O)O)NC(=O)[C@H](CCC(N)=O)NC(=O)[C@H](Cc2cn(C)c3ccccc23)NC1=O [Compound 81] (Ac-SE[Sar]CI[Trp(1-Me)]QDWGEHRC[Sar]EA-NH2; disulfide 4-14) | < 100 nM | − (“−” denotes lack of solubility at the given condition, as UV absorbance at 340 nm exceeds 0.1 AU and/or it is visibly turbid or contains particles) | − (“−” denotes lack of solubility at the given condition, as UV absorbance at 340 nm exceeds 0.1 AU and/or it is visibly turbid or contains particles) | + (“+” denotes solubility at the given condition, as determined by UV absorbance being less than 0.1 AU at 340 nm and the sample being clear when manually inspected) | + (“+” denotes solubility at the given condition, as determined by UV absorbance being less than 0.1 AU at 340 nm and the sample being clear when manually inspected) | + (“+” denotes solubility at the given condition, as determined by UV absorbance being less than 0.1 AU at 340 nm and the sample being clear when manually inspected)
